The results in this text go back to paper PMC10176470, “Engaging a Non-catalytic Cysteine Residue Drives Potent and Selective Inhibition of Caspase-6” (Journal of the American Chemical Society, 2023).

Molecules are shown by their SMILES.

The target in experiment [1] is proteins of HEK293T cells transiently overexpressing caspase-6 (Homo sapiens, UniProt P63244). The experiment is described as follows: SILAC proteomics / in-gel fluorescence, competition of probe 13-t labeling by 3a. Particulars: Comp; protein GNB2L1 P63244.
The target in experiment [2] is proteins of HEK293T cells transiently overexpressing caspase-6 (Homo sapiens, UniProt Q9BZZ5). Described as above. Particulars: Comp; protein API5 Q9BZZ5.
proteins of HEK293T cells transiently overexpressing caspase-6 (Homo sapiens, UniProt Q9BZZ5), sequence (Q9BZZ5 whole entry): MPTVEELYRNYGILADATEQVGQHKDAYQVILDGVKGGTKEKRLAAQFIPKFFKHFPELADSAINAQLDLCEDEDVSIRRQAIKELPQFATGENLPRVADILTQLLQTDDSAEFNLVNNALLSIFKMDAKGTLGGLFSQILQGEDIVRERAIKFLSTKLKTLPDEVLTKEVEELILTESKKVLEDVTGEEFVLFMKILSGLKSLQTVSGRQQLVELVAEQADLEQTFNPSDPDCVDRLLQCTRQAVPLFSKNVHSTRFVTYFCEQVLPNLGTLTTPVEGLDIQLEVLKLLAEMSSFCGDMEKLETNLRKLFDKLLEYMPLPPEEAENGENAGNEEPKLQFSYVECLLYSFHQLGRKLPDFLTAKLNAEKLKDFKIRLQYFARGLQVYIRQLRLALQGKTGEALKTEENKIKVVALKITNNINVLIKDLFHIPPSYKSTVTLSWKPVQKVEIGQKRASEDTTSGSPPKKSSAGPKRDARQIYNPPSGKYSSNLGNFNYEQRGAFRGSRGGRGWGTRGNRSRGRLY
Experiment [3] concerns the target proteins of HEK293T cells transiently overexpressing caspase-6 (Homo sapiens, UniProt P27635). Described as above. As to conditions: Comp; protein RPL10 P27635.
Experiment [4] concerns the target proteins of HEK293T cells transiently overexpressing caspase-6 (Homo sapiens, UniProt P17987). Described as above. As to conditions: Comp; protein TCP1 P17987.
For experiment [5], the target named is proteins of HEK293T cells transiently overexpressing caspase-6 (Homo sapiens, UniProt P36578). The description is as above. As to conditions: Comp; protein RPL4 P36578.
The target of experiment [6] is proteins of HEK293T cells transiently overexpressing caspase-6 (Homo sapiens, UniProt Q04917). The description is as above. As to conditions: Comp; protein YWHAH Q04917.
proteins of HEK293T cells transiently overexpressing caspase-6 (Homo sapiens, UniProt Q04917), sequence (Q04917 whole entry): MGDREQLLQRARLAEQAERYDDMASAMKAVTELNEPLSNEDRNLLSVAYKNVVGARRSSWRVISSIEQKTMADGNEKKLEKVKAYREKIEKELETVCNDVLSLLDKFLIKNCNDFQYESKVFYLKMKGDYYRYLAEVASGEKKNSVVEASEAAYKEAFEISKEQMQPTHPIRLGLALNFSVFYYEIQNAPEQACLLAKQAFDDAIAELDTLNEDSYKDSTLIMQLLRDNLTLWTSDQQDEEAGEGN
Experiment [7] has as its target proteins of HEK293T cells transiently overexpressing caspase-6 (Homo sapiens, UniProt P38646). Described as above. Particulars: Comp; protein HSPA9 P38646.
Experiment [8] deals with proteins of HEK293T cells transiently overexpressing caspase-6 (Homo sapiens, UniProt P57088). The experiment is described as above. As to conditions: Comp; protein TMEM33 P57088.
proteins of HEK293T cells transiently overexpressing caspase-6 (Homo sapiens, UniProt P57088), sequence (P57088 whole entry): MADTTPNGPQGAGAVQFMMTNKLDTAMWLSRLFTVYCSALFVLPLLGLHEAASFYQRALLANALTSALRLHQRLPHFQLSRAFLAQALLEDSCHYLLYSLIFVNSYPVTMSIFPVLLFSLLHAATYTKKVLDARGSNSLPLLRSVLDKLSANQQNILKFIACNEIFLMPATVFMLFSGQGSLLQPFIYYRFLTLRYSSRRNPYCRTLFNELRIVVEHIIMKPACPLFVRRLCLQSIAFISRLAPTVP
Experiment [9] has as its target proteins of HEK293T cells transiently overexpressing caspase-6 (Homo sapiens, UniProt P13010). The experiment is described as above. As to conditions: Comp; protein XRCC5 P13010.
Experiment [10] concerns the target T1, proteins of HEK293T cells transiently overexpressing caspase-6 (Homo sapiens, UniProt P40926).
T1 sequence (P40926 25-338): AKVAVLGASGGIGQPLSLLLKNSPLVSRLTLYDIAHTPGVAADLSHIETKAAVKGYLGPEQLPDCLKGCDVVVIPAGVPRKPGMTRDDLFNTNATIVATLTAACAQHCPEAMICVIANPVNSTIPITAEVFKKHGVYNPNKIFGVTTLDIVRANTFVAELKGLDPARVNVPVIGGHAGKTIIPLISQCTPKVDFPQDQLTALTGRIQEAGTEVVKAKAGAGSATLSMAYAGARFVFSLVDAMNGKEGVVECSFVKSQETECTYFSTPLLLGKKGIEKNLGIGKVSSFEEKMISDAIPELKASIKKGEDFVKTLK
The experiment is described as above. As to conditions: Comp; protein MDH2 P40926.

Experiment [11] addresses proteins of HEK293T cells transiently overexpressing caspase-6 (Homo sapiens, UniProt O43143). The experiment is described as above. As to conditions: Comp; protein DHX15 O43143.
For experiment [12], the target named is proteins of HEK293T cells transiently overexpressing caspase-6 (Homo sapiens, UniProt P13804). Described as above. Particulars: Comp; protein ETFA P13804.
proteins of HEK293T cells transiently overexpressing caspase-6 (Homo sapiens, UniProt P13804), sequence (P13804 20-333): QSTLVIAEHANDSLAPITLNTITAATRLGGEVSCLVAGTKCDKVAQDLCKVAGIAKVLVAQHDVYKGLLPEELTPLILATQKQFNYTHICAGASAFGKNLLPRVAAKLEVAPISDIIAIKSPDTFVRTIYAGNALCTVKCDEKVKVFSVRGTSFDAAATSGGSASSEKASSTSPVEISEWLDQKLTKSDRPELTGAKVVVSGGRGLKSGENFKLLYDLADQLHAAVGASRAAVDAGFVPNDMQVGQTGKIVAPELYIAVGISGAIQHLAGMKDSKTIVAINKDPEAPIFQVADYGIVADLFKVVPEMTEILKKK
Experiment [13] deals with lamin A cleavage by caspase-6 in SK-N-AS cells. The experiment is described as follows: Lamin cleavage assay (in-cell western after staurosporine induction). As to conditions: Homo sapiens, 1 h compound then staurosporine 3 h. It is filed as cell-based.
Experimental: This assay measured lamin A cleavage under staurosporine-induced caspase activation; while staurosporine activates all executioner caspases, lamin A cleavage monitors only the activity of C6. After 1 h of preincubation with the compound and 3 h of incubation with staurosporine, lamin A cleavage was measured by in-cell western.
Inhibition of lamin A cleavage in SK-N-AS cells after staurosporine induction of caspases. Cells were treated with the indicated compound for 1 h before the addition of 10 μM staurosporine for 4 h. Error bars indicate the standard deviation from n = 4 replicate samples.
serves as a useful target-engagement assay in cells. We used the procedure of Mintz, et al, with the following modifications: SK-N-AS cells were seeded at 10,000 cells/well in black clear bottom 384-
well plates coated with poly-D-lysine and allowed to adhere overnight. Wells were treated with
varying doses of casapase-6 inhibitor, from 5 µM – 0.1 nM in 2-fold dilutions. After one hour, cells
were treated with 10 µM staurosporine to induce apoptosis and activation of multiple caspases. 3
hours after staurosporine addition, cells were fixed and permeabilized before in-cell westerns were
performed, as described.9
The target in experiment [14] is T2, caspase-3 (C3) (Homo sapiens, UniProt P42574).
T2 sequence (P42574 29-175 limits assumed): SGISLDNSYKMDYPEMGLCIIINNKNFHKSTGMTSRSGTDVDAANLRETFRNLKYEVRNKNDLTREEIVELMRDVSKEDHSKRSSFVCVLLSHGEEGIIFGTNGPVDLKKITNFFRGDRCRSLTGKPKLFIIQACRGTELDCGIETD
The experiment is described as follows: Caspase-3 biochemical activity assay with fluorogenic substrate. The text has this:
Error bars represent the standard deviation of thre replicate measurements. […] Activity measured by the cleavage of aminofluorocoumarin-labeled peptides (see the Supporting Information for sequences). C = caspase.

proteins of HEK293T cells transiently overexpressing caspase-6 (Homo sapiens, UniProt P38646), sequence (P38646 47-679): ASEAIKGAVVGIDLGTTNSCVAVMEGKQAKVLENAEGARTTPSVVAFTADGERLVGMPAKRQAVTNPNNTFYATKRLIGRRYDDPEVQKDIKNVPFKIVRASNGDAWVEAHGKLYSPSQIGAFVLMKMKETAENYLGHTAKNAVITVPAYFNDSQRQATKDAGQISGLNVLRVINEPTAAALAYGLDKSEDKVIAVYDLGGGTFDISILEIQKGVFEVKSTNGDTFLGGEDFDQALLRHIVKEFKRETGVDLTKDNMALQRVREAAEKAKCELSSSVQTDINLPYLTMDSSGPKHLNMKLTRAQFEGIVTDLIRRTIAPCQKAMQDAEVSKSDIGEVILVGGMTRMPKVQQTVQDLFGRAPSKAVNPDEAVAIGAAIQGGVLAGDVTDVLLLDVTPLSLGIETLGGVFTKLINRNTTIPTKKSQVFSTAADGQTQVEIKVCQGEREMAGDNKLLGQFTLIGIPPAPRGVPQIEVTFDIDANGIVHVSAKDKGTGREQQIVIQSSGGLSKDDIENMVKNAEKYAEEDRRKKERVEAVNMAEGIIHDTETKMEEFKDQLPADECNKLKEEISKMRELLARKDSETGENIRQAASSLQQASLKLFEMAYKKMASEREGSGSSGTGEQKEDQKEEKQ
proteins of HEK293T cells transiently overexpressing caspase-6 (Homo sapiens, UniProt P13010), sequence (P13010 whole entry): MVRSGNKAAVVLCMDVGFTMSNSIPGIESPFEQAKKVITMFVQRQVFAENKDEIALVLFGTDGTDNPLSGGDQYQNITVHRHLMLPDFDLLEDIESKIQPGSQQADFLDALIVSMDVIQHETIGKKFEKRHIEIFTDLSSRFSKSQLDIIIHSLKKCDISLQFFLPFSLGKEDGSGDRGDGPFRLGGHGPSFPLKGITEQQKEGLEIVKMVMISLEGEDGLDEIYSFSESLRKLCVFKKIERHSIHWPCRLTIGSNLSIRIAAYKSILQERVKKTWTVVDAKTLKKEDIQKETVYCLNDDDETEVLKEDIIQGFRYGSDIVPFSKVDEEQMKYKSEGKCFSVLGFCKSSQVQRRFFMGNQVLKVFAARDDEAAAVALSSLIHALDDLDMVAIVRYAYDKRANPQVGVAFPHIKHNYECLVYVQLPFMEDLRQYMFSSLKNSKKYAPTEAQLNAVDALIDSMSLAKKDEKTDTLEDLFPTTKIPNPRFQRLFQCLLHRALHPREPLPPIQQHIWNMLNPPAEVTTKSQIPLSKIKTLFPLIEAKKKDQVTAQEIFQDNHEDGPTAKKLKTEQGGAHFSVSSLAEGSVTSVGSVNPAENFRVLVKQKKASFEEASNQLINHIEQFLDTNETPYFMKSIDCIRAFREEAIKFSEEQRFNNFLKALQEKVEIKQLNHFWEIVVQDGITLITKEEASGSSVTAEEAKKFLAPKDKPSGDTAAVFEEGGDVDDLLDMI
proteins of HEK293T cells transiently overexpressing caspase-6 (Homo sapiens, UniProt O43143), sequence (O43143 whole entry): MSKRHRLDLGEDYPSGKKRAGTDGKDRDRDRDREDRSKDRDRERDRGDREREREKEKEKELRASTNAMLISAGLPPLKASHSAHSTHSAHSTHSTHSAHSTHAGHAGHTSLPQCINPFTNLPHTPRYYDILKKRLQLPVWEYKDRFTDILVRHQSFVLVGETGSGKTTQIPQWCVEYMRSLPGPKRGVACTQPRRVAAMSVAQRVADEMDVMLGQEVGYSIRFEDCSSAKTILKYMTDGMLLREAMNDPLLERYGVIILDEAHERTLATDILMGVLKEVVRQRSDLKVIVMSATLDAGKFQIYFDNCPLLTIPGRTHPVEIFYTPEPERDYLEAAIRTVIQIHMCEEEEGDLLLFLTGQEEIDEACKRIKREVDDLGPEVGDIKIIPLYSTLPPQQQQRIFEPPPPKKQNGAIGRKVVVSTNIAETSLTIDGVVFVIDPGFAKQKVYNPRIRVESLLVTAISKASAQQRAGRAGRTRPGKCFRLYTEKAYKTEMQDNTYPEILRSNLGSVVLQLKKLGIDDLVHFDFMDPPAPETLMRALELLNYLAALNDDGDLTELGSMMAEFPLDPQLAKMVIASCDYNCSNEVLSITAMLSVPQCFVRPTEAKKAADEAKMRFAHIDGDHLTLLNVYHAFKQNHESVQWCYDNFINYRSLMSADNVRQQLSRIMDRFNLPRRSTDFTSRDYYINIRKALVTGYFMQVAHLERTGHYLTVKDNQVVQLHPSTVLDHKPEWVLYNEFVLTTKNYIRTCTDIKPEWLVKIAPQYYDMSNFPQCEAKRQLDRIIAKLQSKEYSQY
proteins of HEK293T cells transiently overexpressing caspase-6 (Homo sapiens, UniProt P17987), sequence (P17987 whole entry): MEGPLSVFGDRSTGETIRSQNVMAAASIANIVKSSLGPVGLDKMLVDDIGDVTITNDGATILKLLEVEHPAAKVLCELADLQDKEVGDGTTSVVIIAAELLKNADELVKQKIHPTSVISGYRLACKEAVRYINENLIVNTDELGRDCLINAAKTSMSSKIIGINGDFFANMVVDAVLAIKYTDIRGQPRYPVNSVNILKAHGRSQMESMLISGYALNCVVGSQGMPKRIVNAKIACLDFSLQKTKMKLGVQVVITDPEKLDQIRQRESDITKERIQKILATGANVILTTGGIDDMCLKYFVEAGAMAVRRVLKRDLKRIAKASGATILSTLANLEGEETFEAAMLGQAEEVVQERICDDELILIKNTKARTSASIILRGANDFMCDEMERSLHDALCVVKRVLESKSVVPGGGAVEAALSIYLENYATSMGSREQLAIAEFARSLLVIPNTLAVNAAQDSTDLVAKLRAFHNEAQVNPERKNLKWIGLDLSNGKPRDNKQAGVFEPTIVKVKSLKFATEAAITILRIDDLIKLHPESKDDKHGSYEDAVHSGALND

Usually IC50 stands for the concentration needed to halve the response being measured. Take `C=CS(=O)(=O)N1C[C@H](C(=O)Nc2ccc(OC(F)(F)F)cc2)C[C@@H](c2ccccc2)C1` [3a]: the enrich.exp.med in [1] stood at 0.7266; in experiment [2] it was 0.5956; in experiment [3], 0.809; in experiment [4], 0.7901; in experiment [5] it was 0.5872; in experiment [6] it was 0.8526. The enrich.exp.med in [7] is on record as 0.6522; in [8] it was 0.7492; in experiment [9], 0.6006; in experiment [10], 0.5931; in experiment [11], 0.7591; in experiment [12], 0.7888. Moreover, the IC50 in experiment [13] was 170 ± 4 nM; in [14] (read-out: Casp-3 IC50), more than 500000 nM. Moreover, in experiment [14], the “activity against C3 (in words)” value is recorded as “lack of activity”.
